# Experimental data: patent US20040127363A1, “Pesticidal compositions containing silicon compounds” (priority 2000, published 2004)
# System: mites and insects
# Assay: Pesticidal activity in a variety of application forms
# Type: in vivo
# Settings: diluted aqueous solutions, emulsions with surfactant, or without any solvent
# Method: The pesticidal activity was found both in diluted aqueous solutions and in emulsions together with suitable ionic, amphoteric or non-ionic surfactant, or without any solvent.
# The pesticidal activity of the silicon esters of the present invention was tested against mites and insects.
compound,measurement,value
CCCCO[Si](OCCCC)(OCCCC)OCCCC [tetrabutyl ortho silicate],pesticidal activity,high pesticidal activity
